Results taken from ChEMBL document CHEMBL1201862, “PubChem BioAssay data set” (2004).
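Test compounds were applied to cells in 96-well plates for 48 hours at 5 doses. The concentration for 50% growth inhibition is given as GI50.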 Active and inactive are the calls of the source. No stated cut-off is given here; in the data, active = GI50 up to about 1.1 µM and inactive = higher.

Key:
Assay in all cases: NCI tumour cell line growth inhibition, 48 h
[1] = test system: SF-539
[2] = test system: SF-268
[3] = test system: MDA-N
[4] = test system: A498
[5] = test system: OVCAR-8
[6] = test system: SR
[7] = test system: OVCAR-4
[8] = test system: MCF7
[9] = test system: Hs-578T
[10] = test system: U-251
[11] = test system: SK-MEL-28
[12] = test system: DU-145
[13] = test system: LOX IMVI
[14] = test system: MOLT-4
[15] = test system: CAKI-1
[16] = test system: NCI-H23
[17] = test system: NCI-H460
[18] = test system: HOP-62
[19] = test system: SK-MEL-2
[20] = test system: PC-3

Measured: GI50

CCO/C=N\C1=C(C#N)SC2=N/C(=C\c3ccc(OC)cc3)C(=O)N21
inactive: [1] > 100 µM | [2] 45.4 µM | [3] > 100 µM | [4] > 100 µM | [5] > 100 µM | [6] 82.8 µM | [7] 15.4 µM | [8] > 100 µM | [9] 33.7 µM | [10] 75.3 µM | [11] > 100 µM | [12] > 100 µM | [13] > 100 µM | [14] > 100 µM | [15] > 100 µM | [16] > 100 µM

O=C(O)c1ccccc1/N=C/c1ccc(N(CCCl)CCCl)cc1
inactive: [17] 31.5 µM | [1] > 66.5 µM | [2] > 72.4 µM | [4] > 40.5 µM | [18] 1.31 µM | [5] > 100 µM | [7] > 100 µM | [19] > 100 µM | [8] > 84.7 µM | [10] 78 µM | [11] > 100 µM | [13] > 100 µM | [14] 36.6 µM | [15] 9.75 µM | [16] 47.6 µM

Cc1cn(C2CC(OP(=O)(O)OCC3OC(n4c[n+]([BH2-]C#N)c5c(=O)[nH]c(N)nc54)CC3O)C(CO)O2)c(=O)[nH]c1=O (stereo not drawn)
inactive: [17] > 100 µM | [1] > 100 µM | [2] > 100 µM | [3] > 100 µM | [4] > 100 µM | [18] > 100 µM | [5] > 100 µM | [6] > 100 µM | [7] > 100 µM | [19] > 100 µM | [8] > 100 µM | [10] > 100 µM | [12] > 100 µM | [20] > 100 µM | [14] > 100 µM | [15] > 100 µM | [16] > 100 µM

O=C1C(Cl)=C(NCCc2ccc(O)cc2)C(=O)c2c(O)ccc(O)c21
inactive: [17] 7.46 µM | [1] 6.58 µM | [2] 9.12 µM | [3] > 10 µM | [18] 6.56 µM | [5] > 10 µM | [7] > 10 µM | [19] 8.28 µM | [8] 4.13 µM | [10] > 10 µM | [12] > 10 µM | [20] > 10 µM | [13] 7.66 µM | [14] > 10 µM | [15] > 10 µM | [16] > 10 µM

COc1cc2nc(-c3cccs3)nc(N3CCN(c4ccccc4)CC3)c2cc1OC
inactive: [17] > 100 µM | [1] > 100 µM | [2] > 100 µM | [4] > 100 µM | [18] > 100 µM | [5] > 100 µM | [6] > 100 µM | [7] > 100 µM | [19] > 100 µM | [8] > 100 µM | [9] > 100 µM | [10] > 100 µM | [11] > 100 µM | [12] > 100 µM | [20] > 100 µM | [13] > 100 µM | [15] > 100 µM | [16] > 100 µM

CN(NC(=O)c1cccs1)C1=NCCCCN1
inactive: [17] > 100 µM | [1] > 100 µM | [2] > 100 µM | [3] > 100 µM | [4] > 100 µM | [18] > 100 µM | [5] > 100 µM | [6] > 100 µM | [7] > 100 µM | [19] > 100 µM | [8] > 100 µM | [9] > 100 µM | [10] > 100 µM | [11] > 100 µM | [20] > 100 µM | [13] > 100 µM | [14] > 100 µM | [16] > 100 µM

CCc1ccccc1/N=N/C(=O)NNc1ccccc1CC
inactive: [17] 18 µM | [2] 17.3 µM | [3] 18.3 µM | [4] 18.7 µM | [18] 15.8 µM | [5] 15.2 µM | [6] 23.2 µM | [7] 24 µM | [19] 17.5 µM | [8] 19.2 µM | [10] 16.1 µM | [11] 17.7 µM | [12] 14.9 µM | [20] 16.4 µM | [13] 18.5 µM | [14] 19.4 µM | [15] 27.9 µM | [16] 19.9 µM

COc1ccc(O)c(C#N)c1C#N.COc1ccc(OC)c(C#N)c1C#N
inactive: [17] > 100 µM | [1] > 100 µM | [2] > 100 µM | [4] > 100 µM | [18] > 100 µM | [5] > 100 µM | [7] > 100 µM | [19] > 100 µM | [8] > 100 µM | [10] > 100 µM | [11] > 100 µM | [13] > 100 µM | [14] > 100 µM | [15] > 100 µM | [16] > 100 µM
